Data from US5359121A, “Glycine derivative monosodium salt tetrahydrate” (Ono Pharmaceutical Co., Ltd., priority 1991, dated 1994).

Tests used:
[1] = Experiment of hygroscopicity; format: physicochemical; settings: exposure to air / 25° C., humidity of 75%
Experimental: The hygroscopicity of each compound was measured by the ratio of its weight to lapse of time.

[2] = Toxicity

In the case of `CC(C)(C)C(=O)Oc1ccc(S(=O)(=O)Nc2ccccc2C(=O)NCC(=O)[O-])cc1.[Na+]` [the comparison compound, N-[o-(p-pivaloyloxybenzenesulfonylamino)benzoyl]glycine monosodium salt], the “hygroscopicity (result in words)” value ([1]; listed as the monosodium salt of the compound of the formula (II), monosodium salt) is reported as “hygroscopic” and the “hygroscopicity (result in words)” value ([1]; monosodium salt) is reported as “increased its weight with lapse of time”.

In the case of `CC(C)(C)C(=O)Oc1ccc(S(=O)(=O)Nc2ccccc2C(=O)NCC(=O)[O-])cc1.O.O.O.O.[Na+]` [the present invention compound, N-[o-(p-pivaloyloxybenzenesulfonylamino)benzoyl]glycine monosodium salt tetrahydrate], the “hygroscopicity (result in words)” value [1] is reported as “no change of its weight” and the toxicity [2] is reported as “very low”.
